Tests used:
Type in all cases: cell-based
EP300 = EP300 (Homo sapiens (Human), UniProt Q09472); experiment: Western blot for EP300 degradation in Kelly NB cells; details: 8 and 16 hours, at 3 μM
Method: (§1) […] Whole cell lysates were collected using ice cold lysis buffer [300 mM NaCl, 50 mM Tris-HCl, pH 7.5, 0.5% Triton X-100, 1% sodium dodecyl sulfate (SDS), 1 mM dithiothreitol (DTT) (Invitrogen™), Roche®'s cOmplete™ protease inhibitor cocktail (1:000), 25 units/mL Benzonase®] and blotted at a protein concentration of 30 μg for EP300 and CBP and 10 μg for histone H3 and H3K27ac. Lysates were also blotted for bromodomain-containing protein 4 (BRD4). Lysates were resolved in NuPAGE™ 3-8% Tris-Acetate polyacrylamide gels (EA03785BOX, Invitrogen™) for EP300 and CBP and Bolt 4-12% Bis-Tris polyacrylamide gels (NW04125BOX, Invitrogen™) for H3 and H3K27ac. Afterwards, gels were transferred to nitrocellulose membranes (LC2001, Invitrogen™). […] Visualization was performed on an Odyssey infrared imaging system (LiCor® Biosciences).

CBP = CBP (Homo sapiens (Human), UniProt Q92793); experiment: Western blot for CBP degradation in Kelly NB cells; details: 8 and 16 hours, at 3 μM
Method: as §1

BRD2/3/4 = experiment: Western blot, selectivity against BRD2/3/4 in Kelly NB cells; details: 8 and 16 hours
Method: […] Whole cell lysates were collected using ice cold lysis buffer [300 mM NaCl, 50 mM Tris-HCl, pH 7.5, 0.5% Triton X-100, 1% sodium dodecyl sulfate (SDS), 1 mM dithiothreitol (DTT) (Invitrogen™), Roche®'s cOmplete™ protease inhibitor cocktail (1:000), 25 units/mL Benzonase®] and blotted at a protein concentration of 30 μg for EP300 and CBP and 10 μg for histone H3 and H3K27ac. Lysates were also blotted for bromodomain-containing protein 4 (BRD4). Lysates were resolved in NuPAGE™ 3-8% Tris-Acetate polyacrylamide gels (EA03785BOX, Invitrogen™) for EP300 and CBP and Bolt 4-12% Bis-Tris polyacrylamide gels (NW04125BOX, Invitrogen™) for H3 and H3K27ac. Afterwards, gels were transferred to nitrocellulose membranes (LC2001, Invitrogen™). Primary and secondary antibodies used included anti-p300 at 1:500 dilution (ab10485, Abcam®), anti-CBP at 1:500 dilution (D6C5, Cell Signaling Technology®), anti-Actin at 1:5000 dilution (3700S, Cell Signaling Technology®), anti-H3 at 1:1000 dilution (4499S, Cell Signaling Technology®), anti-H3K27ac at 1:1000 dilution (ab4729, Abcam®), IRDye®800 goat anti-rabbit at 1:5000 dilution (926-32211, LiCor® Biosciences) and IRDye®680 goat anti-mouse at 1:5000 dilution (926-68070, LiCor®). Visualization was performed on an Odyssey infrared imaging system (LiCor® Biosciences).

Sequence of EP300 (Q09472 whole entry): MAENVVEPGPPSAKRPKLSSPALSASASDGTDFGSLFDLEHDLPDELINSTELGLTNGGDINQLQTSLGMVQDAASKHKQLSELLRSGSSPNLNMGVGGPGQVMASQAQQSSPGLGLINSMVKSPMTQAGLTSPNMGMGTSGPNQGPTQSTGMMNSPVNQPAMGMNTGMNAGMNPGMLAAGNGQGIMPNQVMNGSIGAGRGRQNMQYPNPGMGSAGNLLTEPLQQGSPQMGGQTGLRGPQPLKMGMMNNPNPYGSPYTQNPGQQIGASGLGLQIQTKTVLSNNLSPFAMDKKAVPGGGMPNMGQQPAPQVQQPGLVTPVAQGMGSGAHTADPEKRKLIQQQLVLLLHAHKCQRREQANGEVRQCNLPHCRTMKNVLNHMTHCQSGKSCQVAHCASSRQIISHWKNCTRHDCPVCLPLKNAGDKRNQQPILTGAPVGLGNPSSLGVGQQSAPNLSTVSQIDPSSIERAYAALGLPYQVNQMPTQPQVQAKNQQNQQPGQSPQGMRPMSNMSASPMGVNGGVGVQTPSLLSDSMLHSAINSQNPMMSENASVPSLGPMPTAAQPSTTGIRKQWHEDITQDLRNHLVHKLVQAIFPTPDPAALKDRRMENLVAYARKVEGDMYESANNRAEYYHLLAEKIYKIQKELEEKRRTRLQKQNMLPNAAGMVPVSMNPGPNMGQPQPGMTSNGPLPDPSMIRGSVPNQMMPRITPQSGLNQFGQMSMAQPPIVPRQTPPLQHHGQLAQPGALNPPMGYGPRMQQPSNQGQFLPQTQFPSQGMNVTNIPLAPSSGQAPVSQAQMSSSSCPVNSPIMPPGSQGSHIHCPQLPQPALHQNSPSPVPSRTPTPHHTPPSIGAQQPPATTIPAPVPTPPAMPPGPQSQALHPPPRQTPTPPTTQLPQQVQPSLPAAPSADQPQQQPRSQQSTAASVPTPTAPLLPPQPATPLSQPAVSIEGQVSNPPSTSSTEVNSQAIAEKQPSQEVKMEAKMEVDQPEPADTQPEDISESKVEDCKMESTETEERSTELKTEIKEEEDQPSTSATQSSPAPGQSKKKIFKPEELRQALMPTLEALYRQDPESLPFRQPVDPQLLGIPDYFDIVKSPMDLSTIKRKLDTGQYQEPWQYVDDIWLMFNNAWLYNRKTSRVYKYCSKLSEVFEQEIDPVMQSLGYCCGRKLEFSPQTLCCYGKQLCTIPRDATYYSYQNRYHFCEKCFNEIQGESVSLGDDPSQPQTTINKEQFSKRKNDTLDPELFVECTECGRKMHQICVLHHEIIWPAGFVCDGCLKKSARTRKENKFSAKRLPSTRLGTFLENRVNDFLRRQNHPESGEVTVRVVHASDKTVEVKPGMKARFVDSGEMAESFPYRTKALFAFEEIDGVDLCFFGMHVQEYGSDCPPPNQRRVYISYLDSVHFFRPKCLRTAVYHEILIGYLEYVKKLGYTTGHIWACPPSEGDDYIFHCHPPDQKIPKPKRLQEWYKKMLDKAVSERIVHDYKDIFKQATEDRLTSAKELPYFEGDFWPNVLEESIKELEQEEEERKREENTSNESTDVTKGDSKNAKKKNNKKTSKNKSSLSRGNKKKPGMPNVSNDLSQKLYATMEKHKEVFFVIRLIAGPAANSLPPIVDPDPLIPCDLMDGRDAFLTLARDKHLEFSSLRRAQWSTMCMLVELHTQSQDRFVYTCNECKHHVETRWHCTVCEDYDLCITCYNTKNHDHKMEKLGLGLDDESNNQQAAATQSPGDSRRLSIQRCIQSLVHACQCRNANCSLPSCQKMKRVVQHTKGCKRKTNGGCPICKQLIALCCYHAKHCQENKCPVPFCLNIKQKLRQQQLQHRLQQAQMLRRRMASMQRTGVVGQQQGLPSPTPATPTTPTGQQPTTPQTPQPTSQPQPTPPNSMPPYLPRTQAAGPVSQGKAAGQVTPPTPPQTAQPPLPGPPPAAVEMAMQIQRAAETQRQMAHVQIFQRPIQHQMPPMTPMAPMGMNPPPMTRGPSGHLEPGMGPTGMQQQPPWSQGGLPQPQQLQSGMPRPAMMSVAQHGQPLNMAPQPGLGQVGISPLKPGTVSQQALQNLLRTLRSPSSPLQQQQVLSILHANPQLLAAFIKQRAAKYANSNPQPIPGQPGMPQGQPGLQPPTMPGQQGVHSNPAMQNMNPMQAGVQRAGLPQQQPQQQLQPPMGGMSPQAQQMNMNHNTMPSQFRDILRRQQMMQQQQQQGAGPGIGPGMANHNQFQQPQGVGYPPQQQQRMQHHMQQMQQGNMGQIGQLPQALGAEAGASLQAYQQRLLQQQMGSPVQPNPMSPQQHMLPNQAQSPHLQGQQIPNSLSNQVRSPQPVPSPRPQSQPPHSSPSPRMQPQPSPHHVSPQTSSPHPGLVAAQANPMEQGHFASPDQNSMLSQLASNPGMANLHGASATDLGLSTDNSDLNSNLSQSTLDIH
Sequence of CBP (Q92793 whole entry): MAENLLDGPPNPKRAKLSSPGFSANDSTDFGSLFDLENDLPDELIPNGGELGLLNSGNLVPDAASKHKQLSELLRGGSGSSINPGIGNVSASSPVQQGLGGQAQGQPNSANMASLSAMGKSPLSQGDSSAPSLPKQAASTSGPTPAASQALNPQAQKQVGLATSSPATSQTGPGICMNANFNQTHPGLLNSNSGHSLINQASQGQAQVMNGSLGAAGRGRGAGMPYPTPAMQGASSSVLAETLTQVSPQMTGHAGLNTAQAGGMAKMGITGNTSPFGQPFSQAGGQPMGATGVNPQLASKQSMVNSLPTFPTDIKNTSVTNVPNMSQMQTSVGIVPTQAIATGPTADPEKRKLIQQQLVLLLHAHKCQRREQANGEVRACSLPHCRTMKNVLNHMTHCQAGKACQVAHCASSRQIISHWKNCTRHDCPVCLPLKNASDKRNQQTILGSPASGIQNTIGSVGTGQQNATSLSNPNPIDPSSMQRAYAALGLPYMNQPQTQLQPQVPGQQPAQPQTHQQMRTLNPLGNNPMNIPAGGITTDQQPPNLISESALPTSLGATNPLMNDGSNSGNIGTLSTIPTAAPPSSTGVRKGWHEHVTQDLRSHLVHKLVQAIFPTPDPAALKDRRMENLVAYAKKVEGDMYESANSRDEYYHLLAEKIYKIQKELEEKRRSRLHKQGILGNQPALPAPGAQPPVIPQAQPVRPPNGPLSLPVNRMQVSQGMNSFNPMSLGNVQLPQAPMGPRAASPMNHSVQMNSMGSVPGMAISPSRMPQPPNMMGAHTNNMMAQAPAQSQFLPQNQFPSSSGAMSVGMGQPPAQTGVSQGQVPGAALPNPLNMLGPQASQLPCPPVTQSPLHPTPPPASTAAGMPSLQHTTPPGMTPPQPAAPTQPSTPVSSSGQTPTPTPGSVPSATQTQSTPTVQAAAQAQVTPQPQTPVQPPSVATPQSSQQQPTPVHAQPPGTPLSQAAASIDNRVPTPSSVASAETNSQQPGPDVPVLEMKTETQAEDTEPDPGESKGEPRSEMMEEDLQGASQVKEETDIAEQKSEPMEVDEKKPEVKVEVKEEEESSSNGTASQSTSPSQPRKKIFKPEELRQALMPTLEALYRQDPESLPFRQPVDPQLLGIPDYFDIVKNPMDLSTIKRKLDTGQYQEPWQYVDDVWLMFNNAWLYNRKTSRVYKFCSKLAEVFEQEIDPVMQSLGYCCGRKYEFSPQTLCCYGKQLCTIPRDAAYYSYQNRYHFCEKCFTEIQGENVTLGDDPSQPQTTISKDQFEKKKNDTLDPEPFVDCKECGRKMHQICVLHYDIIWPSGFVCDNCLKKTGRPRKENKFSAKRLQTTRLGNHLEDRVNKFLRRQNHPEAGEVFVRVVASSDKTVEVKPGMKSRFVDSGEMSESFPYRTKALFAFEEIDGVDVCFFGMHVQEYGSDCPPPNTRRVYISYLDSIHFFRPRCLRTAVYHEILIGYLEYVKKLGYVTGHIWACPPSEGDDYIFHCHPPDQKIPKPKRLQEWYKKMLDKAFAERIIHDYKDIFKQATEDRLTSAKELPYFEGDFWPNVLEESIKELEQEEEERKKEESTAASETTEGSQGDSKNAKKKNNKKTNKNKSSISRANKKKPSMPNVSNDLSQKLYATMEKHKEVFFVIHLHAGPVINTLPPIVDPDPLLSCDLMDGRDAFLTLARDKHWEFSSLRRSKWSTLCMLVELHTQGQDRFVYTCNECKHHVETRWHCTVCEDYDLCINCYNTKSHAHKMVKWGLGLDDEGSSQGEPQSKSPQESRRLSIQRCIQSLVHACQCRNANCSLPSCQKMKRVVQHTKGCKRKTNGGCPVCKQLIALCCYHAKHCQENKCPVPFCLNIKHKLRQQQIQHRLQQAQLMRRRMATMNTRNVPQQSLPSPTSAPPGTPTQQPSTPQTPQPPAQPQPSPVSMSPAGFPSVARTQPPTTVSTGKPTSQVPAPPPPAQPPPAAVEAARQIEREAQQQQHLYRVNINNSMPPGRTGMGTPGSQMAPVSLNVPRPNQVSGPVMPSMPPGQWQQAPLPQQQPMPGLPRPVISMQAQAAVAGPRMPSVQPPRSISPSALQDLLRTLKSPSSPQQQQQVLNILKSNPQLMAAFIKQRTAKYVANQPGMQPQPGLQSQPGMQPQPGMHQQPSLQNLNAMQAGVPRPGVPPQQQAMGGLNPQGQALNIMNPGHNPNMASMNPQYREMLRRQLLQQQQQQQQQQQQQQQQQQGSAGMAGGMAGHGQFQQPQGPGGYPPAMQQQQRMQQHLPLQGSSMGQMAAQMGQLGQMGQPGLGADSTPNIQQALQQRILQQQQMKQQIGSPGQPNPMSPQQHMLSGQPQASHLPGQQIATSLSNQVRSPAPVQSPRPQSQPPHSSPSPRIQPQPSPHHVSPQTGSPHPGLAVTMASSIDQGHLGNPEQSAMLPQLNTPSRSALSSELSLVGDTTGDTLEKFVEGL

- P300 degradation (immunoblot) (EP300): noticeable degradation
- CBP degradation (immunoblot) (CBP): noticeable degradation
Structure (SMILES): C[C@@H]1CC(=O)Nc2cccc(-c3ccc4c(c3)c(-c3cnn(C(=O)CCCCCCCCCNc5cccc6c5C(=O)N(C5CCC(=O)NC5=O)C6=O)c3)nn4C)c2N1 (stereo partly drawn) [Compound 31, 2-(2,6-dioxopiperidin-3-yl)-4-((10-(4-(1-methyl-5-((R)-4-methyl-2-oxo-2,3,4,5-tetrahydro-1H-benzo[b][1,4]diazepin-6-yl)-1H-indazol-3-yl)-1H-pyrazol-1-yl)-10-oxodecyl)amino)isoindoline-1,3-dione]
- selectivity of P300 and CBP degradation against BRD2/3/4 (BRD2/3/4): selective

Reference: patent US12496348B2, “Small molecule target bromo/acetyl proteins and uses thereof” (DANA-FARBER CANCER INSTITUTE, INC., priority 2019, dated 2025)
